# Experiments:
# Assay type in all cases: in vivo
# [1] = tested on: Rhynchosporium secalis (RHYNSE); assay: Field assessment of scald of barley (RHYNSE), trials 2 and 3, relative AUDPC; conditions: Trial 2, 3, based on AUDPC
# Description: (§1) Field Assessment of Mixtures of the Compound of Formula I and Pyraclostrobin on Rhynchosporium secalis (RHYNSE) in Barley:
# In the remaining trials, treatments consisting of the compound of Formula I and the fungicide pyraclostrobin were applied either using individually or as a two-way mixture with the compound of Formula I. […] Commercial standards used in these studies were SiltraXpro (200 g ai/L prothioconazole+60 g ai/ha bixafen) applied at 260 g ai/ha, and Opera (133 g/L pyraclostrobin+50 g/L epoxiconazole) applied at 220 g ai/ha. All treatments were part of an experimental trial designed as a randomized complete block with four replications.
# (§2) Disease severity (percentage of visual diseased foliage on whole plot or leaves) in both trials was recorded following EPPO PP1/26 guideline prescriptions. Area under the disease progress curve (AUDPC) was calculated for each plot in both trials using the sets of recorded severity data. Relative AUDPC (% control based on AUDPC) was calculated as percent of the nontreated control. Final results for the control of scald of barley by the compound of Formula I, pyraclostrobin and mixtures are reported as an average of the relative AUDPC calculated over both field trials. Statistical analysis was done according to ANOVA and Tukey's test (p=0.10).
# [2] = tested on: Puccinia recondita (PUCCRT); assay: Field assessment of brown rust of wheat (PUCCRT), relative AUDPC, 2 field trials; conditions: based on AUDPC
# Description: (§3) Treatments consisting of the compound of Formula I and the fungicide picoxystrobin were applied either using individually or as a two-way mixture with the compound of Formula I. The compound of Formula I was applied with Agnique BP-420 (50% w/w at 0.3% v/v) at 75 and 150 g ai/ha and picoxystrobin (Acanto) was applied at 125 and 200 g ai/ha. The commercial standard used in the studies was Fluxapyroxad (Imtrex) and was applied at 100 g ai/ha.
# Field Assessment of Puccinia recondita (PUCCRT) in Wheat:
# Fungicidal treatment containing the compound of Formula I and picoxystrobin, either individually or as a two mixture, were assessed against brown rust of wheat (PUCCRT) in two separate field trials. In the first trial, fungicidal treatments were applied at B37-39 (protectant, approximately 0% infection at application) growth stage of wheat (TRZAW, MV Vanek variety) under natural infection of brown rust. The treatment was part of an experimental trial designed as a randomized complete block with four replications and a plot of approximately 2×3 m. Fungicidal treatments were applied at a water volume of 200 L/ha, using a backpack plot sprayer with a TEEJET QJ90-2XTT110 015 Nozzle.
# In the second trial, fungicidal treatments containing the compound of Formula I and picoxystrobin, either individually or as a two way mixture, were applied at B33 (curative, approximately 6.6% infection at application) growth stage of wheat (TRZAW, Miradoux variety) under natural infection of brown rust. The treatments were part of an experimental trial designed as a randomized complete block with four replications and a plot of approximately 2×3 m. Fungicidal treatments were applied at a water volume of 200 L/ha, using a backpack plot sprayer with a HARDI MD110-02 Nozzle.
# (§4) Disease severity (percentage of visual diseased foliage on whole plot or leaves) in both field trials was assessed at 5 weeks after application and was recorded following EPPO PP1/26 guideline prescriptions. Area under the disease progress curve (AUDPC) was calculated for each plot in both trials using the sets of recorded severity data. Relative AUDPC (% control based on AUDPC) was calculated as percent of the nontreated control. Final results for the control of brown rust of wheat by the compound of Formula I, picoxystrobin, and mixtures are reported as an average of the relative AUDPC calculated over both field trials. Statistical analysis was done according to ANOVA and Tukey's test (p=0.10).
# [3] = tested on: Puccinia striiformis (PUCCST); assay: Field assessment of yellow rust of wheat (PUCCST), relative AUDPC, 2 field trials; conditions: based on AUDPC
# Description: as §3
# Field Assessment of Puccinia striiformis (PUCCST) in Wheat:
# Fungicidal treatments containing the compound of Formula I and picoxystrobin, either individually or as a two way mixture, were assessed against yellow rust of wheat (PUCCST) in two separate field trials. […]
# as §4, with “4-7” for “5”, “yellow” for “brown”, “Statistical analysis was done according to ANOVA and Tukey's test (p=0.10).” left out
# Puccinia hordei (PUCCHD) = assay: Field assessment of rust of barley (PUCCHD), relative AUDPC, 2 field trials; conditions: based on AUDPC
# Description: Treatments consisting of the compound of Formula I and the fungicide pyraclostrobin were applied either using individually or as a two-way mixture with the compound of Formula I. The compound of Formula I was applied with Agnique BP-420 (50% w/w at an active:adjuvant ratio of 1:2) at 75, 100 and 150 g ai/ha and with pyraclostrobin (Comet 200) at 100, 150 and 200 g ai/ha. Commercial standards used in these studies were Proline 275 (275 g ai/L Prothioconazole), applied at 150 g ai/ha, and SiltraXpro (200 g ai/L prothioconazole+60 g ai/ha bixafen), applied at 195 g ai/ha.
# Field Assessment of Mixtures of the Compound of Formula I and Pyraclostrobin on Puccinia Hordie (PUCCHD) in Barley: […]
# Fungicidal treatments containing the compound of Formula I and pyraclostrobin, either individually or as a two-way mixture, were assessed against rust of barley (PUCCHD) in two separate field trials. In both trials, fungicidal treatments were applied at B37-39 growth stages of winter barley (Lomeritt variety) under natural infection of barley rust. All treatments were part of an experimental trial designed as a randomized complete block with four replications.
# as §2, with “in both field trials was” for “in both trials was”, “control of rust of barley” for “control of scald of barley”
# [4] = tested on: Rhynchosporium secalis (RHYNSE); assay: Field assessment of scald of barley (RHYNSE), trial 1, relative AUDPC; conditions: Trial 1, based on AUDPC
# Method: (§5) Commercial standards used in these studies were Proline 275 (275 g ai/L Prothioconazole), applied at 150 g ai/ha, and SiltraXpro (200 g ai/L prothioconazole+60 g ai/ha bixafen), applied at 195 g ai/ha.
# as §1
# Fungicidal treatments containing the compound of Formula I and fluxapyroxad, either individually or as a two-way mixture, were assessed against scald of barley (RHYNSE) in three field trials. In the first trial, fungicidal treatments were applied at B37-39 growth stages of winter barley (HORVW, Maris Otter variety) under natural infection of barley scald (protectant test, approximately 1% infection on leaf 4 at application). All treatments were part of an experimental trial designed as a randomized complete block with four replications.
# Disease severity (percentage of visual diseased foliage on whole plot or leaves) in the first trial was recorded following EPPO PP1/26 guideline prescriptions. Area under the disease progress curve (AUDPC) was calculated for each plot in the trial using the sets of recorded severity data. Relative AUDPC (% control based on AUDPC) was calculated as percent of the nontreated control. […] Statistical analysis was done according to ANOVA and Tukey's test (p=0.10).
# [5] = tested on: Pyrenophora teres (PYRNTE); assay: Field assessment of net blotch of barley (PYRNTE), relative AUDPC; conditions: based on AUDPC
# Description: as §5
# Field Assessment of Mixtures of the Compound of Formula I and Pyraclostrobin on Pyrenophora teres (PYRNTE) in Barley:
# […] […], fungicidal treatments were applied at B31-37 growth stages of winter barley and sprong barley (HORVW, Lomeritt variety; HORVS, Scarlett variety) under natural infection of net blotch (protectant tests, 1% infection on leaf 4 and 10% infection on leaf 6 at application). All treatments were part of an experimental trial designed as a randomized complete block with four replications.
# […] […] Relative AUDPC (% control based on AUDPC) was calculated as percent of the nontreated control. […] Statistical analysis was done according to ANOVA and Tukey's test (p=0.10).
structure (smiles),measurement,setting,value
"N#Cc1ccc(Oc2ccc(C(F)(F)C(O)(Cn3ncnc3S)c3ccc(F)cc3F)nc2)cc1 (stereo not drawn) [Compound I, 4-((6-(2-(2,4-difluorophenyl)-1,1-difluoro-2-hydroxy-3-(5-mercapto-1H-1,2,4-triazol-1-yl)propyl)pyridin-3-yl)oxy)benzonitrile]",RHYNSE % Control,[1]; 80 g ai/ha,15.6%
same,RHYNSE % Control,[1]; 125 g ai/ha,38.6%
same,PUCCRT % Control,[2]; 75 g ai/ha,90.7%
same,PUCCRT % Control,[2]; 150 g ai/ha,91.4%
"CO/C=C(/C(=O)OC)c1ccccc1COc1cccc(C(F)(F)F)n1 [Picoxystrobin, methyl (E)-3-methoxy-2-[2-(6-trifluoromethyl-2-pyridyloxymethyl)phenyl]acrylate]",PUCCST % Control,[3]; 125 g ai/ha,34.6%
same,PUCCST % Control,[3]; 200 g ai/ha,43.2%
same,PUCCRT % Control,[2]; 125 g ai/ha,64.6%
same,PUCCRT % Control,[2]; 200 g ai/ha,81.1%
"COC(=O)N(OC)c1ccccc1COc1ccn(-c2ccc(Cl)cc2)n1 [Pyraclostrobin, methyl N-[2-[[[1-(4-chlorophenyl)-1H-pyrazol-3-yl]oxy]methyl]phenyl]-N-methoxycarbamate]",PUCCHD % Control,Puccinia hordei (PUCCHD); 100 g ai/ha,63.3%
same,PUCCHD % Control,Puccinia hordei (PUCCHD); 150 g ai/ha,64.4%
same,PUCCHD % Control,Puccinia hordei (PUCCHD); 200 g ai/ha,78.7%
same,RHYNSE % Control,[1]; 200 g ai/ha,43.0%
same,RHYNSE % Control,[4]; 100 g ai/ha,41.2%
same,RHYNSE % Control,[4]; 150 g ai/ha,45.0%
same,RHYNSE % Control,[4]; 200 g ai/ha,47.8%
same,PYRNTE % Control,[5]; 100 g ai/ha,46.5%
same,PYRNTE % Control,[5]; 150 g ai/ha,60.5%
same,PYRNTE % Control,[5]; 200 g ai/ha,69.8%

# Source: patent US20210282401A1, “FUNGICIDAL COMPOUNDS AND MIXTURES FOR FUNGAL CONTROL IN CEREALS” (Dow AgroSciences LLC, priority 2016, published 2021)
